From PubChem BioAssay AID2060893 (Molecular Pharmacology Branch, DTP, NCI, 2025)
Each block holds one compound with its values, some of them ahead of it.

System: K86415-001-R-J1-PDC complex spheroids, viability
Assay: Anticancer human tumor K86415-001-R-J1-PDC patient-derived lung adenocarcinoma cell line growth inhibition [RAS]
Details: for IC50: curve of first compound; for viability, T/C: stronger effect = lower value
Method in brief: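 Agents were tested in combination matrices in half-log decrements from a top concentration at or near clinical Cmax (10 microM if undetermined). Targets were multi-cell spheroids of tumour lines plus HUVEC and MSC stromal cells.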

[1] = second compound 0.0316 µM, first compound 0.00316 µM
[2] = second compound 0.0316 µM, first compound 0.01 µM
[3] = second compound 0.0316 µM, first compound 0.0316 µM
[4] = second compound 0.0316 µM, first compound 0.1 µM
[5] = second compound 0.0316 µM, first compound 0.316 µM
[6] = second compound 0.0316 µM, first compound 1 µM
[7] = second compound 0.1 µM, first compound 0.00316 µM
[8] = second compound 0.1 µM, first compound 0.01 µM
[9] = second compound 0.1 µM, first compound 0.0316 µM
[10] = second compound 0.1 µM, first compound 0.1 µM
[11] = second compound 0.1 µM, first compound 0.316 µM
[12] = second compound 0.1 µM, first compound 1 µM
[13] = second compound 0.316 µM, first compound 0.00316 µM
[14] = second compound 0.316 µM, first compound 0.01 µM
[15] = second compound 0.316 µM, first compound 0.0316 µM
[16] = second compound 0.316 µM, first compound 0.1 µM
[17] = second compound 0.316 µM, first compound 0.316 µM
[18] = second compound 0.316 µM, first compound 1 µM
[19] = second compound 1 µM, first compound 0.00316 µM
[20] = second compound 1 µM, first compound 0.01 µM
[21] = second compound 1 µM, first compound 0.0316 µM
[22] = second compound 1 µM, first compound 0.1 µM
[23] = second compound 1 µM, first compound 0.316 µM
[24] = second compound 1 µM, first compound 1 µM
[25] = second compound 3.16 µM, first compound 0.00316 µM
[26] = second compound 3.16 µM, first compound 0.01 µM
[27] = second compound 3.16 µM, first compound 0.0316 µM
[28] = second compound 3.16 µM, first compound 0.1 µM
[29] = second compound 3.16 µM, first compound 0.316 µM
[30] = second compound 3.16 µM, first compound 1 µM
[31] = second compound 10 µM, first compound 0.00316 µM
[32] = second compound 10 µM, first compound 0.01 µM
[33] = second compound 10 µM, first compound 0.0316 µM
[34] = second compound 10 µM, first compound 0.1 µM
[35] = second compound 10 µM, first compound 0.316 µM
[36] = second compound 10 µM, first compound 1 µM
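Further: spheroids exposed to agents for seven days before readout.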

IC50 (second compound 0.0316 µM): < 3.16 nM
IC50 (second compound 0.1 µM): < 3.16 nM
IC50 (second compound 0.316 µM): < 3.16 nM
IC50 (second compound 1 µM): < 3.16 nM
IC50 (second compound 3.16 µM): < 3.16 nM
IC50 (second compound 10 µM): < 3.16 nM
Structure (SMILES): C=CC(=O)N1CCN(c2nc(OCC3CCCN3C)nc3c(F)c(-c4nc(N)cc(C)c4C(F)(F)F)c(Cl)cc23)C(C)C1 (stereo not drawn) + C#Cc1c(F)ccc2cc(O)cc(-c3ncc4c(N5CC6CCC(C5)N6)nc(OCC56CCCN5CC(F)C6)nc4c3F)c12
viability, T/C [1]: 18.2%
viability, T/C [2]: 12.5%
viability, T/C [3]: 11.4%
viability, T/C [4]: 11.2%
viability, T/C [5]: 8.99%
viability, T/C [6]: 12%
viability, T/C [7]: 19.5%
viability, T/C [8]: 12.3%
viability, T/C [9]: 11.3%
viability, T/C [10]: 10.5%
viability, T/C [11]: 7.88%
viability, T/C [12]: 11%
viability, T/C [13]: 19.9%
viability, T/C [14]: 11.8%
viability, T/C [15]: 8.76%
viability, T/C [16]: 12.1%
viability, T/C [17]: 9.15%
viability, T/C [18]: 9.63%
viability, T/C [19]: 18.6%
viability, T/C [20]: 13.6%
viability, T/C [21]: 13.2%
viability, T/C [22]: 8.99%
viability, T/C [23]: 10.1%
viability, T/C [24]: 10.7%
viability, T/C [25]: 19.5%
viability, T/C [26]: 13.4%
viability, T/C [27]: 9.24%
viability, T/C [28]: 9.62%
viability, T/C [29]: 9.96%
viability, T/C [30]: 9.83%
viability, T/C [31]: 11.9%
viability, T/C [32]: 12.9%
viability, T/C [33]: 10.9%
viability, T/C [34]: 9.94%
viability, T/C [35]: 10.1%
viability, T/C [36]: 9.54%

IC50 (second compound 0.0316 µM): < 31.6 nM
IC50 (second compound 0.1 µM): < 31.6 nM
IC50 (second compound 0.316 µM): < 31.6 nM
IC50 (second compound 1 µM): < 31.6 nM
IC50 (second compound 3.16 µM): < 31.6 nM
IC50 (second compound 10 µM): < 31.6 nM
Structure (SMILES): CC(=O)OC12COC1CC(O)C1(C)C(=O)C(O)C3=C(C)C(OC(=O)C(O)C(NC(=O)OC(C)(C)C)c4ccccc4)CC(O)(C(OC(=O)c4ccccc4)C21)C3(C)C (stereo not drawn) + C#Cc1c(F)ccc2cc(O)cc(-c3ncc4c(N5CC6CCC(C5)N6)nc(OCC56CCCN5CC(F)C6)nc4c3F)c12
viability, T/C [3]: 29.3%
viability, T/C [4]: 30.7%
viability, T/C [5]: 32.6%
viability, T/C [6]: 30.9%
viability, T/C (second compound 0.0316 µM, first compound 3.16 µM): 37.5%
viability, T/C (second compound 0.0316 µM, first compound 10 µM): 35.7%
viability, T/C [9]: 30.8%
viability, T/C [10]: 34.4%
viability, T/C [11]: 28.6%
viability, T/C [12]: 32%
viability, T/C (second compound 0.1 µM, first compound 3.16 µM): 26.8%
viability, T/C (second compound 0.1 µM, first compound 10 µM): 37%
viability, T/C [15]: 32.2%
viability, T/C [16]: 29.9%
viability, T/C [17]: 27.4%
viability, T/C [18]: 28.9%
viability, T/C (second compound 0.316 µM, first compound 3.16 µM): 29.2%
viability, T/C (second compound 0.316 µM, first compound 10 µM): 28.8%
viability, T/C [21]: 34.2%
viability, T/C [22]: 33.9%
viability, T/C [23]: 28.7%
viability, T/C [24]: 32.6%
viability, T/C (second compound 1 µM, first compound 3.16 µM): 25.9%
viability, T/C (second compound 1 µM, first compound 10 µM): 26.7%
viability, T/C [27]: 23.9%
viability, T/C [28]: 26.8%
viability, T/C [29]: 27.1%
viability, T/C [30]: 26.5%
viability, T/C (second compound 3.16 µM, first compound 3.16 µM): 29.4%
viability, T/C (second compound 3.16 µM, first compound 10 µM): 24.5%
viability, T/C [33]: 20.1%
viability, T/C [34]: 19.1%
viability, T/C [35]: 19.5%
viability, T/C [36]: 19.3%
viability, T/C (second compound 10 µM, first compound 3.16 µM): 18.2%
viability, T/C (second compound 10 µM, first compound 10 µM): 15.3%

IC50 (second compound 0.0316 µM): 2.54 nM
IC50 (second compound 0.1 µM): 2.62 nM
IC50 (second compound 0.316 µM): 2.35 nM
IC50 (second compound 1 µM): 1.79 nM
IC50 (second compound 3.16 µM): < 0.949 nM
IC50 (second compound 10 µM): < 0.949 nM
Structure (SMILES): CCc1c2c(nc3ccc(O)cc13)-c1cc3c(c(=O)n1C2)COC(=O)[C@]3(O)CC + C#Cc1c(F)ccc2cc(O)cc(-c3ncc4c(N5CC6CCC(C5)N6)nc(OCC56CCCN5CC(F)C6)nc4c3F)c12
viability, T/C (second compound 0.0316 µM, first compound 0.000949 µM): 93.6%
viability, T/C (second compound 0.0316 µM, first compound 0.003 µM): 41.2%
viability, T/C (second compound 0.0316 µM, first compound 0.00949 µM): 21.4%
viability, T/C (second compound 0.0316 µM, first compound 0.03 µM): 17%
viability, T/C (second compound 0.0316 µM, first compound 0.0949 µM): 10.5%
viability, T/C (second compound 0.0316 µM, first compound 0.3 µM): 5.25%
viability, T/C (second compound 0.1 µM, first compound 0.000949 µM): 85%
viability, T/C (second compound 0.1 µM, first compound 0.003 µM): 44.7%
viability, T/C (second compound 0.1 µM, first compound 0.00949 µM): 24.1%
viability, T/C (second compound 0.1 µM, first compound 0.03 µM): 14%
viability, T/C (second compound 0.1 µM, first compound 0.0949 µM): 9.47%
viability, T/C (second compound 0.1 µM, first compound 0.3 µM): 5.05%
viability, T/C (second compound 0.316 µM, first compound 0.000949 µM): 80.7%
viability, T/C (second compound 0.316 µM, first compound 0.003 µM): 40.4%
viability, T/C (second compound 0.316 µM, first compound 0.00949 µM): 23.9%
viability, T/C (second compound 0.316 µM, first compound 0.03 µM): 15.6%
viability, T/C (second compound 0.316 µM, first compound 0.0949 µM): 11.5%
viability, T/C (second compound 0.316 µM, first compound 0.3 µM): 5.49%
viability, T/C (second compound 1 µM, first compound 0.000949 µM): 69.1%
viability, T/C (second compound 1 µM, first compound 0.003 µM): 34.6%
viability, T/C (second compound 1 µM, first compound 0.00949 µM): 17.2%
viability, T/C (second compound 1 µM, first compound 0.03 µM): 13.6%
viability, T/C (second compound 1 µM, first compound 0.0949 µM): 10.5%
viability, T/C (second compound 1 µM, first compound 0.3 µM): 6.31%
viability, T/C (second compound 3.16 µM, first compound 0.000949 µM): 46%
viability, T/C (second compound 3.16 µM, first compound 0.003 µM): 33.3%
viability, T/C (second compound 3.16 µM, first compound 0.00949 µM): 22.5%
viability, T/C (second compound 3.16 µM, first compound 0.03 µM): 15.5%
viability, T/C (second compound 3.16 µM, first compound 0.0949 µM): 13.9%
viability, T/C (second compound 3.16 µM, first compound 0.3 µM): 6.66%
viability, T/C (second compound 10 µM, first compound 0.000949 µM): 17%
viability, T/C (second compound 10 µM, first compound 0.003 µM): 12.8%
viability, T/C (second compound 10 µM, first compound 0.00949 µM): 16.1%
viability, T/C (second compound 10 µM, first compound 0.03 µM): 18.1%
viability, T/C (second compound 10 µM, first compound 0.0949 µM): 14.2%
viability, T/C (second compound 10 µM, first compound 0.3 µM): 6.63%

IC50 (second compound 0.0316 µM): 83.3 nM
IC50 (second compound 0.1 µM): 93 nM
IC50 (second compound 0.316 µM): 70 nM
IC50 (second compound 1 µM): 45.5 nM
IC50 (second compound 3.16 µM): < 3.16 nM
IC50 (second compound 10 µM): < 3.16 nM
Structure (SMILES): Nc1ccn(C2OC(CO)C(O)C2(F)F)c(=O)n1 (stereo not drawn) + C#Cc1c(F)ccc2cc(O)cc(-c3ncc4c(N5CC6CCC(C5)N6)nc(OCC56CCCN5CC(F)C6)nc4c3F)c12
viability, T/C [1]: 92.8%
viability, T/C [2]: 95%
viability, T/C [3]: 70%
viability, T/C [4]: 48.2%
viability, T/C [5]: 24.9%
viability, T/C [6]: 21.6%
viability, T/C [7]: 92.6%
viability, T/C [8]: 96.6%
viability, T/C [9]: 70.8%
viability, T/C [10]: 50.7%
viability, T/C [11]: 26.6%
viability, T/C [12]: 19.6%
viability, T/C [13]: 90%
viability, T/C [14]: 83.3%
viability, T/C [15]: 60.3%
viability, T/C [16]: 48.1%
viability, T/C [17]: 23.8%
viability, T/C [18]: 19.5%
viability, T/C [19]: 79.1%
viability, T/C [20]: 69.5%
viability, T/C [21]: 54%
viability, T/C [22]: 40.9%
viability, T/C [23]: 22.7%
viability, T/C [24]: 15.7%
viability, T/C [25]: 41.3%
viability, T/C [26]: 35.4%
viability, T/C [27]: 29.7%
viability, T/C [28]: 28.9%
viability, T/C [29]: 23.6%
viability, T/C [30]: 21.2%
viability, T/C [31]: 17.4%
viability, T/C [32]: 17%
viability, T/C [33]: 16.8%
viability, T/C [34]: 13.6%
viability, T/C [35]: 15.5%
viability, T/C [36]: 14.5%
